Tests used:
[1] = for surface tension liquid-gas: Pendant drop shape; for mass density: 101 kPa, Liquid
[2] = xn = mol fraction of the nth substance listed; conditions: for surface tension liquid-gas: Pendant drop shape; for mass density: 101 kPa, Liquid

Cc1cccc(C)c1 [1,3-dimethylbenzene]
[1]
Conditions	mass density [kg/m3]	surface tension liquid-gas [mN/m]
298.15 K	859.8	28.47
303.15 K	855.51	27.93
308.15 K	851.19	27.37

CCCOC(C)=O [propyl ethanoate] + CCc1ccccc1
[2]
Conditions	mass density [kg/m3]	surface tension liquid-gas [mN/m]
298.15 K, x1 = 0.1005	864.23	28.15
298.15 K, x1 = 0.1994	866.18	27.51
298.15 K, x1 = 0.3002	868.16	26.89
298.15 K, x1 = 0.4005	870.14	26.35
298.15 K, x1 = 0.5	872.12	25.91
298.15 K, x1 = 0.6002	874.14	25.5
298.15 K, x1 = 0.6997	876.17	25.1
298.15 K, x1 = 0.7998	878.24	24.7
298.15 K, x1 = 0.9007	880.38	24.3
298.15 K, x1 = 1	882.54	23.91
303.15 K, x1 = 0.1001	859.75	27.7
303.15 K, x1 = 0.1995	861.59	27.1
303.15 K, x1 = 0.2995	863.45	26.49
303.15 K, x1 = 0.4	865.32	25.95
303.15 K, x1 = 0.5004	867.2	25.49
303.15 K, x1 = 0.5995	869.08	25.07
303.15 K, x1 = 0.6999	871	24.65
303.15 K, x1 = 0.8005	872.96	24.24
303.15 K, x1 = 0.9007	874.96	23.85
303.15 K, x1 = 1	876.99	23.46
308.15 K, x1 = 0.1	855.19	27.24
308.15 K, x1 = 0.2	856.93	26.62
308.15 K, x1 = 0.2999	858.67	26.01
308.15 K, x1 = 0.3997	860.41	25.46
308.15 K, x1 = 0.5003	862.18	24.97
308.15 K, x1 = 0.5999	863.95	24.52
308.15 K, x1 = 0.7001	865.74	24.08
308.15 K, x1 = 0.8007	867.58	23.65
308.15 K, x1 = 0.9003	869.44	23.22
308.15 K, x1 = 1	871.35	22.79

Cc1cccc(C)c1 [1,3-dimethylbenzene] + CCCOC(C)=O
[2]
Conditions	mass density [kg/m3]	surface tension liquid-gas [mN/m]
298.15 K, x2 = 0	859.8	28.47
298.15 K, x2 = 0.0997	861.98	27.86
298.15 K, x2 = 0.1999	864.17	27.26
298.15 K, x2 = 0.2986	866.33	26.7
298.15 K, x2 = 0.4002	868.57	26.16
298.15 K, x2 = 0.4986	870.76	25.71
298.15 K, x2 = 0.6004	873.06	25.3
298.15 K, x2 = 0.6984	875.31	24.94
298.15 K, x2 = 0.8004	877.7	24.59
298.15 K, x2 = 0.9007	880.11	24.25
303.15 K, x2 = 0	855.51	27.93
303.15 K, x2 = 0.0999	857.57	27.35
303.15 K, x2 = 0.1989	859.62	26.79
303.15 K, x2 = 0.299	861.69	26.25
303.15 K, x2 = 0.4003	863.8	25.73
303.15 K, x2 = 0.5	865.9	25.27
303.15 K, x2 = 0.5994	868.02	24.88
303.15 K, x2 = 0.6998	870.19	24.51
303.15 K, x2 = 0.8006	872.42	24.15
303.15 K, x2 = 0.8992	874.66	23.81
308.15 K, x2 = 0	851.19	27.37
308.15 K, x2 = 0.0998	853.12	26.8
308.15 K, x2 = 0.2	855.07	26.25
308.15 K, x2 = 0.2998	857.01	25.71
308.15 K, x2 = 0.3993	858.96	25.19
308.15 K, x2 = 0.5006	860.96	24.7
308.15 K, x2 = 0.6004	862.95	24.27
308.15 K, x2 = 0.6999	864.97	23.89
308.15 K, x2 = 0.7988	867.02	23.52
308.15 K, x2 = 0.9013	869.2	23.15

CCc1ccccc1 [ethylbenzene] + CCCOC(C)=O
[2], x2 = 0
Conditions	mass density [kg/m3]	surface tension liquid-gas [mN/m]
298.15 K	862.25	28.79
303.15 K	857.88	28.29
308.15 K	853.43	27.85

CCc1ccccc1 [ethylbenzene]
[1]
Conditions	mass density [kg/m3]	surface tension liquid-gas [mN/m]
298.15 K	862.25	28.79
303.15 K	857.88	28.29
308.15 K	853.43	27.85

CCCOC(C)=O [propyl ethanoate] + Cc1cccc(C)c1
[2], x1 = 1
Conditions	mass density [kg/m3]	surface tension liquid-gas [mN/m]
298.15 K	882.54	23.91
303.15 K	876.99	23.46
308.15 K	871.35	22.79

— the NIST ThermoML archive (doi:10.1021/je060485s)
